Several values for one entry are separate records, joined by “and”; a condition that tells them apart may be missing. Equal entries are not always repeated. Where two headings read alike, the source gives them in different places.
Assays:
[1] = Elution of lidocaine-blended UHMWPE cubes in 40° C. DI water, FTIR lidocaine index profile; format: physicochemical; conditions: 0.25 wt % and 0.50 wt % lidocaine blends, up to 6 weeks
Procedure: These cubes were then immersed in 40° C. DI water. Groups of n=3 cubes per each wt. % were removed from the DI water and analyzed via FTIR at the following time points: 0 weeks (Control), 1 week, 2 weeks, 4 weeks, and 6 weeks.

[2] = for amount of lidocaine eluted: cubes doped 640 min at 100° C.
Source text: The cubes were microtomed perpendicular to a surface plane in the middle of the said surface and the FTIR spectra of the thin sections prepared as described above were obtained as a function of depth from the surface towards the bulk.

[3] = CISM 1 cm cubes, 120° C.
[4] = cited from earlier work

With “2-(Dimethylamino)-N-(2,6-Dimethylphenyl)acetamide [lidocaine]” the “surface concentration of lidocaine in UHMWPE with increasing elution time” value [1] was “decrease”, the “lidocaine eluted, percent” value ([2]; 40° C. DI H2O, 1 day) was 13% and the “amount of lidocaine eluted” value ([2]; 40° C. DI H2O, 1 day) was 1.4 ± 0.1 mg. The “lidocaine eluted, percent” value ([2]; 40° C. DI H2O, 2 days) was 20%, the “amount of lidocaine eluted” value ([2]; 40° C. DI H2O, 2 days) was 2.2 ± 0.1 mg and the “lidocaine eluted, percent” value ([2]; 40° C. DI H2O, 7 days) was 34%. For the same compound, the “amount of lidocaine eluted” value ([2]; 40° C. DI H2O, 7 days) was 3.6 ± 0.1 mg, the “lidocaine eluted, percent” value ([2]; 40° C. DI H2O, 14 days) was 45% and the “amount of lidocaine eluted” value ([2]; 40° C. DI H2O, 14 days) was 4.8 ± 0.1 mg. The “lidocaine eluted, percent” value ([2]; 40° C. DI H2O, 28 days) was 59%, the “amount of lidocaine eluted” value ([2]; 40° C. DI H2O, 28 days) was 6.3 ± 0.2 mg and the “lidocaine eluted, percent” value ([2]; 40° C. DI H2O, 56 days) was 70%. For the same compound, the “amount of lidocaine eluted” value ([2]; 40° C. DI H2O, 56 days) was 7.5 ± 0.1 mg, the “lidocaine eluted, percent” value ([2]; 100° C. DI H2O, 0.6 hours) was 19% and the “amount of lidocaine eluted” value ([2]; 100° C. DI H2O, 0.6 hours) was 2.0 ± 0.0 mg. For the same compound, the “lidocaine eluted, percent” value ([2]; 100° C. DI H2O, 2.6 hours) was 38%, the “amount of lidocaine eluted” value ([2]; 100° C. DI H2O, 2.6 hours) was 4.1 ± 0.1 mg and the “lidocaine eluted, percent” value ([2]; 100° C. DI H2O, 5.3 hours) was 49%. For the same compound, the “amount of lidocaine eluted” value ([2]; 100° C. DI H2O, 5.3 hours) was 5.2 ± 0.0 mg, the “lidocaine eluted, percent” value ([2]; 100° C. DI H2O, 12 hours) was 70% and the “amount of lidocaine eluted” value ([2]; 100° C. DI H2O, 12 hours) was 7.3 ± 0.0 mg. The “lidocaine eluted, percent” value ([2]; 100° C. DI H2O, 24 hours) was 79%, the “amount of lidocaine eluted” value ([2]; 100° C. DI H2O, 24 hours) was 8.6 ± 0.2 mg and the “lidocaine eluted, percent” value ([2]; 100° C. DI H2O, 48 hours) was 85%. The “amount of lidocaine eluted” value ([2]; 100° C. DI H2O, 48 hours) was 9.0 ± 0.1 mg, the “amount of lidocaine absorbed” value ([3]; doping time 1 hour) was 10.6 ± 0.3 mg and the “amount of lidocaine absorbed” value ([3]; doping time 2 hours) was 16.8 ± 0.1 mg. The “amount of lidocaine absorbed” value ([3]; doping time 6 hours) was 30.8 ± 0.2 mg and ~31 mg, the “amount of lidocaine absorbed” value ([3]; doping time 12 hours) was 40.3 ± 0.2 mg and the “amount of lidocaine absorbed” value ([3]; doping time 24 hours) was 52.1 ± 0.9 mg. For the same compound, the “amount of lidocaine absorbed” value ([3]; doping time […]) was 3.0 ± 0.1 mg.

For `CCCCN1CCCCC1C(=O)Nc1c(C)cccc1C.Cl` (stereo not shown) [bupivacaine hydrochloride, 1-Butyl-N-(2,6-dimethylphenyl)-2-piperidinecarboxamide hydrochloride], the “solubility in cold water” value [4] is given as “soluble”, the “solubility in diethyl ether” value [4] is given as “partially soluble” and the solubility in methanol [4] is given as “easily soluble”.

Reference: patent US20230256139A1, “IMPLANT SURFACES FOR PAIN CONTROL” (The General Hospital Corporation, priority 2016, published 2023)
